Data published in US11780826B2 (Amgen Inc., priority 2017, dated 2023).

Tested on: Bovine cardiac myofibrils
Assay: In vitro model of dose-dependent myofibril ATPase modulation (AC1.4, pyruvate kinase/lactate dehydrogenase-coupled ATPase assay at pCa25)
Format: biochemical
Details: concentration at which ATPase activity was 1.4-fold higher than the bottom of the dose curve, mean of a minimum of two independent tests
Outline: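 Coupled-enzyme ATPase on bovine heart myofibrils, 1 mM ATP, EGTA/CaCl2 buffered; 340 nm readout.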

`O=C(c1ccccc1)c1cccc(C(=O)N2[C@@H](C(=O)N[C@@H](c3cc(F)c(Cl)cc3F)C3CC3)C[C@H]3C[C@H]32)c1` [Example 608, (1R,3R,5R)-2-(3-benzoylbenzoyl)-N-((R)-(4-chloro-2,5-difluorophenyl)(cyclopropyl)methyl)-2-azabicyclo[3.1.0]hexane-3-carboxamide] gave an AC1.4 of 3.7405 µM.

In the case of `O=C(N[C@@H](c1ccc(C(F)(F)F)cc1F)C1CC1)[C@H]1CCCN1C(=O)c1cccc(C2(F)COC2)c1` [Example 577, N—((R)-cyclopropyl(2-fluoro-4-(trifluoromethyl)phenyl)methyl)-1-(3-(3-fluoro-3-oxetanyl)benzoyl)-D-prolinamide], the AC1.4 was 3.2945 µM.

For `CS(=O)(=O)c1cccc(C(=O)N2[C@@H](C(=O)N[C@@H](c3ccc(C(F)(F)F)c(F)c3)C3COC3)C[C@H]3C[C@H]32)c1` [Example 193, (1R,3R,5R)-N-((R)-(3-fluoro-4-(trifluoromethyl)phenyl)(3-oxetanyl)methyl)-2-(3-(methylsulfonyl)benzoyl)-2-azabicyclo[3.1.0]hexane-3-carboxamide], the AC1.4 was 0.3676 µM.

Compound `Cc1cc(C(F)(F)F)ccc1CNC(=O)[C@H]1CCCN1C(=O)[C@H]1CCCN(S(=O)(=O)N2CC(C#N)C2)C1` [Example 60, 1-(((3S)-1-((3-cyano-1-azetidinyl)sulfonyl)-3-piperidinyl)carbonyl)-N-(2-methyl-4-(trifluoromethyl)benzyl)-D-prolinamide] has an AC1.4 of 0.0657 µM.

`CS(=O)(=O)C1CN(S(=O)(=O)N2CCC[C@H](C(=O)N3CCC[C@@H]3C(=O)NCc3ccc(C(F)(F)F)cc3)C2)C1` [Example 72, 1-(((3S)-1-((3-(methylsulfonyl)-1-azetidinyl)sulfonyl)-3-piperidinyl)carbonyl)-N-(4-(trifluoromethyl)benzyl)-D-prolinamide] showed an AC1.4 of 0.09025 µM.

`O=C(N[C@@H](c1ccc(C(F)(F)F)cc1F)C1CC1)[C@H]1CCCN1C(=O)c1cccc(-c2ccsc2)c1` [Example 726, N-((R)-cyclopropyl(2-fluoro-4-(trifluoromethyl)phenyl)methyl)-1-(3-(3-thiophenyl)benzoyl)-D-prolinamide] gave an AC1.4 of 6.547 µM.

Compound `CS(=O)(=O)c1cncc(C(=O)N2CCC[C@@H]2C(=O)N[C@@H](c2ccc(C(F)(F)F)cc2F)C2CC2)c1` [Example 662, N-((R)-cyclopropyl(2-fluoro-4-(trifluoromethyl)phenyl)methyl)-1-((5-(methylsulfonyl)-3-pyridinyl)carbonyl)-D-prolinamide] has an AC1.4 of 4.4365 µM.

In the case of `O=C(N[C@@H](c1ccc(C(F)(F)F)cc1F)C1COC1)[C@H]1C[C@H]2C[C@H]2N1C(=O)c1cncc(C(F)(F)F)c1` [Example 527, (1R,3R,5R)-N-((R)-(2-fluoro-4-(trifluoromethyl)phenyl)(3-oxetanyl)methyl)-2-((5-(trifluoromethyl)-3-pyridinyl)carbonyl)-2-azabicyclo[3.1.0]hexane-3-carboxamide], the AC1.4 was 2.5985 µM.

In the case of `Cc1cc(C(=O)N2[C@@H](C(=O)N[C@@H](c3cc(F)c(Cl)cc3F)C3CC3)C[C@H]3C[C@H]32)ccn1` [Example 736, (1R,3R,5R)-N-((R)-(4-chloro-2,5-difluorophenyl)(cyclopropyl)methyl)-2-((2-methyl-4-pyridinyl)carbonyl)-2-azabicyclo[3.1.0]hexane-3-carboxamide], the AC1.4 was 7.041 µM.

`N#CC1CN(S(=O)(=O)N2CCC[C@H](C(=O)N3CCC[C@@H]3C(=O)NCc3cc(Cl)cc(C(F)(F)F)c3)C2)C1` [Example 532, N-(3-chloro-5-(trifluoromethyl)benzyl)-1-(((3S)-1-((3-cyano-1-azetidinyl)sulfonyl)-3-piperidinyl)carbonyl)-D-prolinamide] was tested, and the AC1.4 was 2.6285 µM.

For `O=C(NCc1ccc(C(F)(F)F)cc1)[C@H]1CCCN1C(=O)[C@H]1CCCN(S(=O)(=O)N2CC(n3ccnn3)C2)C1` [Example 203, 1-(((3S)-1-((3-(1H-l,2,3-triazol-1-yl)-1-azetidinyl)sulfonyl)-3-piperidinyl)carbonyl)-N-(4-(trifluoromethyl)benzyl)-D-prolinamide], the AC1.4 was 0.4299 µM.

`O=C(N[C@@H](c1ccc(C(F)(F)F)cc1F)C1CC1)[C@H]1C[C@H]2C[C@H]2N1C(=O)c1ccccc1NC(=O)C(F)(F)F` [Example 553, (1R,3R,5R)-N-((R)-cyclopropyl(2-fluoro-4-(trifluoromethyl)phenyl)methyl)-2-(2-(2,2,2-trifluoroacetamido)benzoyl)-2-azabicyclo[3.1.0]hexane-3-carboxamide] gave an AC1.4 of 2.873 µM.

In the case of `N#CC1CN(S(=O)(=O)N2CCC[C@H](C(=O)N3CCC[C@@H]3C(=O)NC(CO)c3ccc(C(F)(F)F)cc3)C2)C1` (stereo partly drawn) [Example 134, 1-(((3S)-1-((3-cyano-1-azetidinyl)sulfonyl)-piperidinyl)carbonyl)-N-(-2-hydroxy-1-(4-(trifluoromethyl)phenyl)ethyl)-D-prolinamide], the AC1.4 was 0.2198 µM.

`CS(=O)(=O)c1cccc(C(=O)N2[C@@H](C(=O)N[C@@H](c3cc(F)c(Cl)cc3F)C3(O)CC3)C[C@H]3C[C@H]32)c1` [Example 316, (1R,3R,5R)-N-((S)-(4-chloro-2,5-difluorophenyl)(1-hydroxycyclopropyl)methyl)-2-(3-(methylsulfonyl)benzoyl)-2-azabicyclo[3.1.0]hexane-3-carboxamide] was tested, and the AC1.4 was 0.8325 µM.

Work on `N#CC1CN(S(=O)(=O)c2cccc(C(=O)N3CCC[C@@H]3C(=O)N[C@H](CO)c3ccc(C(F)(F)F)cc3)c2)C1` [Example 31, 1-(3-((3-cyano-1-azetidinyl)sulfonyl)benzoyl)-N-((1S)-2-hydroxy-1-(4-(trifluoromethyl)phenyl)ethyl)-D-prolinamide] yielded an AC1.4 of 0.03275 µM.

`CC(C)C1(O)CN(S(=O)(=O)N2CCC[C@H](C(=O)N3CCC[C@@H]3C(=O)NCc3ccc(C(F)(F)F)cc3F)C2)C1` [Example 332, N-(2-fluoro-4-(trifluoromethyl)benzyl)-1-(((3S)-1-((3-hydroxy-3-(2-propanyl)-1-azetidinyl)sulfonyl)-3-piperidinyl)carbonyl)-D-prolinamide] gave an AC1.4 of 0.9097 µM.

Compound `CN1CCN(S(=O)(=O)N2CC(C#N)C2)CC1C(=O)N1CCC[C@@H]1C(=O)NCc1ccc(C(F)(F)F)cc1` (stereo partly drawn) [Example 639, (2R)-1-(4-((3-cyanoazetidin-1-yl)sulfonyl)-1-methylpiperazine-2-carbonyl)-N-(4-(trifluoromethyl)benzyl)pyrrolidine-2-carboxamide] has an AC1.4 of 4.1855 µM.

Compound `CCS(=O)(=O)c1cccc(C(=O)N2[C@@H](C(=O)N[C@@H](c3cc(F)c(C(F)F)cc3F)C3CC3)C[C@H]3C[C@H]32)c1` [Example 178, (1R,3R,5R)-N-((R)-cyclopropyl(4-(difluoromethyl)-2,5-difluorophenyl)methyl)-2-(3-(ethylsulfonyl)benzoyl)-2-azabicyclo[3.1.0]hexane-3-carboxamide] has an AC1.4 of 0.314 µM.

In the case of `N#CC1CN(S(=O)(=O)N2CCC[C@H](C(=O)N3CCC[C@@H]3C(=O)NCc3cc(F)c(Cl)cc3F)C2)C1` [Example 20, N-(4-chloro-2,5-difluorobenzyl)-1-(((3S)-1-((3-cyano-1-azetidinyl)sulfonyl)-3-piperidinyl)carbonyl)-D-prolinamide], the AC1.4 was 0.02545 µM.

`N#CC1CN(S(=O)(=O)N2CCC[C@H](C(=O)N3CCC[C@@H]3C(=O)NCc3ccc(C(F)(F)F)c(Cl)c3)C2)C1` [Example 38, N-(3-chloro-4-(trifluoromethyl)benzyl)-1-(((3S)-1-((3-cyano-1-azetidinyl)sulfonyl)-3-piperidinyl)carbonyl)-D-prolinamide] was tested, and the AC1.4 was 0.0394 µM.

In the case of `C[C@@H](NC(=O)[C@H]1CCCN1C(=O)[C@H]1CCCN(S(=O)(=O)N2CC(C#N)C2)C1)c1cc(F)cc(F)c1` [Example 391, 1-(((3S)-1-((3-cyano-1-azetidinyl)sulfonyl)-3-piperidinyl)carbonyl)-N-((1R)-1-(3,5-difluorophenyl)ethyl)-D-prolinamide], the AC1.4 was 1.3505 µM.

`CS(=O)(=O)c1cc(C(=O)N2C[C@H]3C[C@H]3[C@@H]2C(=O)N[C@@H](c2cc(F)c(Cl)cc2F)C2CC2)ccn1` [Example 393, (1R,2R,5S)-N-((R)-(4-chloro-2,5-difluorophenyl)(cyclopropyl)methyl)-3-((2-(methylsulfonyl)-4-pyridinyl)carbonyl)-3-azabicyclo[3.1.0]hexane-2-carboxamide] gave an AC1.4 of 1.3425 µM.

`CC(C)(C)Nc1ccc(S(C)(=O)=O)cc1C(=O)N1CCC[C@@H]1C(=O)N[C@@H](c1ccc(C(F)(F)F)cc1F)C1CC1` [Example 186, N-((R)-cyclopropyl(2-fluoro-4-(trifluoromethyl)phenyl)methyl)-1-(2-((2-methyl-2-propanyl)amino)-5-(methylsulfonyl)benzoyl)-D-prolinamide] gave an AC1.4 of 0.3372 µM.

For `Cc1ccc(CNC(=O)[C@H]2CCCN2C(=O)[C@H]2CCCN(S(=O)(=O)N3CC(C#N)C3)C2)c(Cl)c1` [Example 191, N-(2-chloro-4-methylbenzyl)-1-(((3S)-1-((3-cyano-1-azetidinyl)sulfonyl)-3-piperidinyl)carbonyl)-D-prolinamide], the AC1.4 was 0.3593 µM.

In the case of `CS(=O)(=O)c1cccc(C(=O)N2[C@@H](C(=O)N[C@@H](c3ccc(Cl)cc3F)C3COC3)C[C@H]3C[C@H]32)c1` [Example 207, (1R,3R,5R)-N-((R)-(4-chloro-2-fluorophenyl)(3-oxetanyl)methyl)-2-(3-(methylsulfonyl)benzoyl)-2-azabicyclo[3.1.0]hexane-3-carboxamide], the AC1.4 was 0.4436 µM.

In the case of `O=C(N[C@@H](c1ccc(C(F)(F)F)cc1F)C1CC1)[C@H]1CCCN1C(=O)c1cccc(C(O)C(F)(F)F)c1` (stereo partly drawn) [Example 556, (2R)-N-((R)-cyclopropyl(2-fluoro-4-(trifluoromethyl)phenyl)methyl)-1-(3-(2,2,2-trifluoro-1-hydroxyethyl)benzoyl)pyrrolidine-2-carboxamide], the AC1.4 was 2.9075 µM.
